Structures can show the parent of a compound that is named as a salt. Where two headings read alike, the source gives them in different places.
How the values were obtained:
[1] = tested on: Ebola VLP entry into HeLa cells; test: microbe, parasite or virus in culture; format: cell-based, Ebola virus; conditions: for IC50 / IC90 / Emax: Zaire ebolavirus, HeLa; for IC90: read-out: Block Ebola VLP entry IC90; for Emax: read-out: Block Ebola VLP entry Max. Inh.
[2] = in vitro; conditions: human, Cytotoxicity IC50
[3] = read-out: Block Ebola VLP entry IC50
[4] = read-out: IC50 of blocking Ebola VLP entry

Compound	Selectivity Index [1]	IC50 [1, 3]	IC90 [1]	Emax [1]	IC50 [1, 4]	IC50 [2]	Activity in the Ebola VLP assay [1]
CCCSc1ccc2nc(NC(=O)OC)[nH]c2c1 [Albendazole]	>102 fold	4.9 µM	20.7 µM	76%	4.8 µM	> 500 µM	
CCN(CCCc1ccccc1)CCCc1ccccc1 [Alverine Citrate]	>58 fold	8.63 µM	21.8 µM	90%		> 500 µM	
CCN(CC)Cc1cc(Nc2ccnc3cc(Cl)ccc23)ccc1O [Amodiaquine]	>113 fold	4.43 µM	27.3 µM	106%		> 500 µM	
CCN(CC)CCCN(c1ccccc1)C1Cc2ccccc2C1 [Aprindine]	>65 fold	7.69 µM	26.6 µM	93%		> 500 µM	
O=C(CCN1CCN2CCCC2C1)N1c2ccccc2Sc2ccc(Cl)cc21 (stereo not shown) [Azaclorzine]	>53 fold	9.43 µM	37.1 µM	88%		> 500 µM	
CC[C@H]1OC(=O)[C@H](C)[C@@H](O[C@H]2C[C@@](C)(OC)[C@@H](O)[C@H](C)O2)[C@H](C)[C@@H](O[C@@H]2O[C@H](C)C[C@H](N(C)C)[C@H]2O)[C@](C)(O)C[C@@H](C)CN(C)[C@H](C)[C@@H](O)[C@]1(C)O [Azithromycin]	>179 fold	2.79 µM	15.8 µM	100%		> 500 µM	
Cc1c(-c2ccc(O)cc2)n(Cc2ccc(OCCN3CCCCCC3)cc2)c2ccc(O)cc12 [Bazedoxifene]						43.2 µM	
CN1[C@@H]2CC[C@H]1C[C@@H](OC(c1ccccc1)c1ccccc1)C2 [Benztropine]			8.25 µM	100%		250 µM	
Cc1ccc(C(=O)Oc2ccc(C(O)CNC(C)(C)C)cc2OC(=O)c2ccc(C)cc2)cc1 (stereo not shown) [Bitolterol]	41 fold	6.11 µM	22.6 µM	85%		250 µM	
COc1cc(Nc2c(C#N)cnc3cc(OCCCN4CCN(C)CC4)c(OC)cc23)c(Cl)cc1Cl [Bosutinib]	11 fold	3.85 µM	21.3 µM	101%		43.2 µM	
CC(C)C[C@H](NC(=O)[C@H](CCc1ccccc1)NC(=O)CN1CCOCC1)C(=O)N[C@@H](Cc1ccccc1)C(=O)N[C@@H](CC(C)C)C(=O)[C@@]1(C)CO1 [Carfilzomib]	>1156 fold	0.432 µM	1.88 µM	57%		> 500 µM	
COc1ccc2cc1Oc1ccc(cc1)C[C@H]1c3c(cc4c(c3Oc3cc5c(cc3OC)CCN(C)[C@@H]5C2)OCO4)CCN1C [Cepharanthine]	58 fold	1.53 µM	4.4 µM	112%		88.9 µM	
CCN(CC)CCCC(C)Nc1ccnc2cc(Cl)ccc12 (stereo not shown) [Chloroquine]	>32 fold	15.3 µM	133 µM	98%		> 500 µM	
CC[C@H]1OC(=O)[C@H](C)[C@@H](O[C@H]2C[C@@](C)(OC)[C@@H](O)[C@H](C)O2)[C@H](C)[C@@H](O[C@@H]2O[C@H](C)C[C@H](N(C)C)[C@H]2O)[C@](C)(OC)C[C@@H](C)C(=O)[C@H](C)[C@@H](O)[C@]1(C)O [Clarithromycin]	>110 fold	4.53 µM	15.1 µM	100%		> 500 µM	
CN(C)CCCN1c2ccccc2CCc2ccc(Cl)cc21 [Clomipramine]			11.7 µM	93%		64.1 µM	
COc1cc2c(c(OC)c1OC)-c1ccc(OC)c(=O)cc1[C@@H](NC(C)=O)CC2 [Colchicine]			0.354 µM	73%		> 500 µM	

Compound	Selectivity Index [1]	IC50 [1, 3]	IC90 [1]	Emax [1]	IC50 [1, 4]	IC50 [2]	Activity in the Ebola VLP assay [1]
CC1CCCCN1CCCOC(=O)c1ccc(OC2CCCCC2)cc1 (stereo not shown) [Cyclomethycaine]	>65 fold	7.69 µM	19.6 µM	86%		> 500 µM	
COc1cccc2c1C(=O)c1c(O)c3c(c(O)c1C2=O)C[C@@](O)(C(C)=O)C[C@@H]3O[C@H]1C[C@H](N)[C@H](O)[C@H](C)O1 [Daunomycin]	>190 fold	2.63 µM	5.4 µM	98%		> 500 µM	
C[C@H]1O[C@@H](O[C@H]2CC[C@@]3(C)[C@H](CC[C@@H]4[C@@H]3C[C@@H](O)[C@]3(C)[C@@H](C5=CC(=O)OC5)CC[C@]43O)C2)C[C@H](O)[C@@H]1O[C@H]1C[C@H](O)[C@H](O[C@H]2C[C@H](O)[C@H](O[C@@H]3O[C@H](CO)[C@@H](O)[C@H](O)[C@H]3O)[C@@H](C)O2)[C@@H](C)O1 [Deslanoside]	515 fold	0.485 µM	11.7 µM	66%		250 µM	
CCCCc1oc2ccc(NS(C)(=O)=O)cc2c1C(=O)c1ccc(OCCCN(CCCC)CCCC)cc1 [Dronedarone]	21 fold	2.2 µM	3.51 µM	81%		48 µM	
COc1cc2ncnc(Nc3ccc(F)c(Cl)c3)c2cc1OCCCN1CCOCC1 [Gefitinib]			17.9 µM				
CN(C)CCCN1c2ccccc2CCc2ccccc21 [Imipramine]						> 500 µM	
CO[C@@H]1[C@@H](OC)[C@H](C)[C@@](O)(CC(=O)O)O[C@H]1[C@H](C)[C@H]1O[C@@]2(CC[C@@](C)([C@H]3CC[C@@](C)([C@@H]4O[C@@H]([C@H]5O[C@](C)(O)[C@H](C)C[C@@H]5C)C[C@@H]4O[C@@H]4C[C@H](OC)[C@@H](OC)[C@H](C)O4)O3)O2)C[C@H](O)[C@H]1C [Maduramicin]	40 fold	0.611 µM	3.94 µM	104%		24.3 µM	
CNCCCC12CCC(c3ccccc31)c1ccccc12 [Maprotiline]			12.1 µM	100%		146 µM	
COC(=O)Nc1nc2ccc(C(=O)c3ccccc3)cc2[nH]1 [Mebendazole]	>145 fold	3.44 µM	14 µM	88%	3.4 µM	> 500 µM	
OC(c1cc(C(F)(F)F)nc2c(C(F)(F)F)cccc12)C1CCCCN1 (stereo not shown) [Mefloquine]	16 fold	2.73 µM	13 µM	94%		43.2 µM	
COCC(=O)O[C@]1(CCN(C)CCCc2nc3ccccc3[nH]2)CCc2cc(F)ccc2[C@@H]1C(C)C [Mibefradil]	10 fold	4.32 µM	7.34 µM	96%		43.2 µM	
O=C(Nc1ccc([N+](=O)[O-])cc1Cl)c1cc(Cl)ccc1O [Niclosamide]	>188 fold	2.66 µM	6.6 µM	81%		> 500 µM	
Cc1cn(-c2cc(NC(=O)c3ccc(C)c(Nc4nccc(-c5cccnc5)n4)c3)cc(C(F)(F)F)c2)cn1 [Nilotinib]	2 fold	24.3 µM	104 µM	100%	15.3 µM	50.1 µM	
CN[C@H]1CC[C@@H](c2ccc(Cl)c(Cl)c2)c2ccccc21 [Zoloft, sertraline]			9.08 µM				
Maraviroc							not active
